From patent US9604936B2, “Besylate salt of a BTK inhibitor” (Celgene Avilomics Research, Inc., priority 2010, dated 2017)
Like-named read-outs stand apart in the source and are kept apart here. Each block holds one molecule with its values, some of them ahead of it.

Tests used:
BTK = BTK (Homo sapiens, UniProt Q06187); settings: enzymatic and cellular assays; cited from earlier work
B-cell proliferation [1] = settings: in vitro; cited from earlier work
B-cell proliferation [2] = settings: in vivo; cited from earlier work
[3] = Solubility of Compound 2 by manual dilution combined with visual observation; type: physicochemical; settings: thermodynamic from solid
Protocol: Solubility of Compound 2, at room temperature, was measured in seventeen solvents and two solvent mixtures by manual dilution combined with visual observation.

Chain of BTK (Q06187 whole entry, species assumed): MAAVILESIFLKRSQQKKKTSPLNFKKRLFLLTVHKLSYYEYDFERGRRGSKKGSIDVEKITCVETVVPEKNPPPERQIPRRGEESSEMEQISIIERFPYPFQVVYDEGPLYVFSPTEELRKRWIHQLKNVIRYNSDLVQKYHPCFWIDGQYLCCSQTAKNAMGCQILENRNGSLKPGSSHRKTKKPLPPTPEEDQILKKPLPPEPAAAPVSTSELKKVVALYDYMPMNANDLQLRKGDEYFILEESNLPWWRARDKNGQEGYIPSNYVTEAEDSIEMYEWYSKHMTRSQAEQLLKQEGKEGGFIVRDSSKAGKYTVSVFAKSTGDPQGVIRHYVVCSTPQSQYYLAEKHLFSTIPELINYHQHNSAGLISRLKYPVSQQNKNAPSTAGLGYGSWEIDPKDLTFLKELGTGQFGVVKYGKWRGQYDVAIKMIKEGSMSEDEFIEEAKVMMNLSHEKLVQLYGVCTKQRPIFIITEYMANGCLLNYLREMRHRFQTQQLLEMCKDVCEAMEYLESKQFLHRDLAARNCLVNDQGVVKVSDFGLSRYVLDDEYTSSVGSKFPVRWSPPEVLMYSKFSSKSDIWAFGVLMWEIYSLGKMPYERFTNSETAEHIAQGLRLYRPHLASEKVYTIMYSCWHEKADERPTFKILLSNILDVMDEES

SMILES: C=CC(=O)Nc1cccc(Nc2nc(Nc3ccc(OCCOC)cc3)ncc2F)c1 [Compound 1, N-(3-(5-fluoro-2-(4-(2-methoxyethoxy)phenylamino)pyrimidin-4-ylamino)phenyl)acrylamide]
inhibition of BTK (BTK): covalent, irreversible inhibition of BTK
inhibition of B-cell proliferation (B-cell proliferation [1]): inhibit B-cell proliferation
inhibition of B-cell proliferation (B-cell proliferation [2]): inhibit B-cell proliferation

solubility ([3]; aqueous with cosolvent or surfactant or cyclodextrin, 1:1 DMF:H2O, room temperature): 71000 to 106000 µg/mL
solubility ([3]; aqueous with cosolvent or surfactant or cyclodextrin, 3:7 DMF:H2O, room temperature): 16000 to 18000 µg/mL
solubility ([3]; organic solvent or mixture, 1,4-dioxane, room temperature): < 1000 µg/mL
solubility ([3]; organic solvent or mixture, Acetone, room temperature): ~2500 µg/mL
solubility ([3]; organic solvent or mixture, Anisole, room temperature): < 1000 µg/mL
solubility ([3]; organic solvent or mixture, Benzyl alcohol, room temperature): 97000 to 194000 µg/mL
solubility ([3]; organic solvent or mixture, CH2Cl2, room temperature): < 1000 µg/mL
solubility ([3]; organic solvent or mixture, CH3CN, room temperature): ~2000 µg/mL
solubility ([3]; organic solvent or mixture, DMF, room temperature): > 184000 µg/mL
solubility ([3]; organic solvent or mixture, Ethanol, room temperature): ~2000 µg/mL
solubility ([3]; organic solvent or mixture, Ethyl Acetate, room temperature): < 1000 µg/mL
solubility ([3]; organic solvent or mixture, Isopropanol, room temperature): < 1000 µg/mL
solubility ([3]; organic solvent or mixture, Methanol, room temperature): 26000 to 29000 µg/mL
solubility ([3]; organic solvent or mixture, Pyridine, room temperature): > 234000 µg/mL
solubility ([3]; organic solvent or mixture, TBME, room temperature): < 1000 µg/mL
solubility ([3]; organic solvent or mixture, THF, room temperature): ~2000 µg/mL
solubility ([3]; organic solvent or mixture, Toluene, room temperature): < 1000 µg/mL
solubility ([3]; Water, room temperature): < 1000 µg/mL
SMILES: C=CC(=O)Nc1cccc(Nc2nc(Nc3ccc(OCCOC)cc3)ncc2F)c1.O=S(=O)(O)c1ccccc1 [Compound 2]
